Laboratory results: patent US20100227859A1, “TRICYCLIC COMPOUNDS AS MATRIX METALLOPROTEINASE INHIBITORS” (priority 2007, published 2010)

molecular target: purified human MMP-12 enzyme (Homo sapiens, UniProt P39900); test: MMP-12 FRET assay; format: biochemical; details: substrate 20 μM, room temperature
Experimental: Compounds according to the present teachings were tested in an MMP-12 FRET assay as follows. To each well of black polystyrene 96-well plate was added assay buffer (50 mM HEPES (pH 7.4), 100 mM NaCl, 5 mM CaCl2 and 0.005% Brij-35 (Polyoxyethyleneglycol dodecyl ether, Pierce cat#20150), purified human MMP-12 enzyme, and varied concentrations of test compounds (prepared by serial dilution of a stock solution in 100% DMSO). The plates were incubated at room temperature for 30 minutes. The enzymatic reactions were initiated by addition of a substrate, MCA-Pro-Leu-Gly-Leu-Dpa(DNP)-Ala-Arg, containing a fluorescent group (7-methoxycoumarin, MCA) and a 2,4-dinitrophenyl group (DNP), to a final concentration of 20 μM. The final DMSO concentration in the assay was 10%. The reaction was monitored for 30 minutes at room temperature and the initial rate of the cleavage reaction was determined using a fluorescence plate reader (λex: 325 nm, λem: 395 nm). Plots of the inhibitor concentration vs. the initial cleavage rate were fit to the following equation: y=Vmax*(1−(x^n/(K^n+x^n))), whereby x=inhibitor concentration, y=initial rate, Vmax=initial rate in the absence of inhibitor, n=slope factor, and K=IC50 for the inhibition curve.

purified human MMP-12 enzyme, sequence (P39900 106-470): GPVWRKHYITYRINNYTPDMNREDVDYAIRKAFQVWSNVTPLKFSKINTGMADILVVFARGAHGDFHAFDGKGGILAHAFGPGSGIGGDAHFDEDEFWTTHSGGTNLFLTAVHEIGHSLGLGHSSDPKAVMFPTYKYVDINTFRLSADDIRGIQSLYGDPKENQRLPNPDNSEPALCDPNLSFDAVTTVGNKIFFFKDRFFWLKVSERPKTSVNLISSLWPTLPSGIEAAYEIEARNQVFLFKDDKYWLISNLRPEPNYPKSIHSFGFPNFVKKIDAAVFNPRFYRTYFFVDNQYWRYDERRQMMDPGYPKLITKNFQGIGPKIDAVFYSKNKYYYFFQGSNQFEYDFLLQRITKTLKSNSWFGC

Row | IC50 [nM] | SMILES
1 | 60 | CC(C)(C)c1nc(-c2ccc3c(c2)oc2ccc(S(=O)(=O)NCC(=O)O)cc23)no1 [Compound 274, 2-(7-(5-tert-butyl-1,2,4-oxadiazol-3-yl)dibenzo[b,d]furan-2-sulfonamido)acetic acid]
2 | 86 | CC(C)[C@H](NS(=O)(=O)c1ccc2c(c1)oc1ccc(-c3ncc(CN4CCN(C)CC4)s3)cc12)C(=O)O [Compound 212, (S)-3-methyl-2-(8-(5-((4-methylpiperazin-1-yl)methyl)thiazol-2-yl)dibenzo[b,d]furan-3-sulfonamido)butanoic acid]
3 | 2.6 | CC(C)[C@@H](NS(=O)(=O)c1ccc2c(c1)sc1cc(-c3ccccc3)ccc12)C(=O)O [Compound 314, (R)-3-methyl-2-(7-phenyldibenzo[b,d]thiophene-3-sulfonamido)butanoic acid]
4 | 7.2 | CC(C)C[C@@H](NS(=O)(=O)c1ccc2oc3cc(-c4noc(C(C)(C)C)n4)ccc3c2c1)C(=O)O [Compound 278, (R)-2-(7-(5-tert-butyl-1,2,4-oxadiazol-3-yl)dibenzo[b,d]furan-2-sulfonamido)-4-methylpentanoic acid]
5 | < 1.5 | CCc1ccc(-c2ccc3oc4cc(S(=O)(=O)N[C@H](C(=O)O)C(C)C)ccc4c3c2)s1 [Compound 196, (S)-2-(8-(5-ethylthiophen-2-yl)dibenzo[b,d]furan-3-sulfonamido)-3-methylbutanoic acid]
6 | < 1.5 | CC(C)[C@H](NS(=O)(=O)c1ccc2c(c1)oc1ccc(-c3ccccc3)cc12)C(=O)O [Compound 309, (S)-3-methyl-2-(8-phenyldibenzo[b,d]furan-3-sulfonamido)butanoic acid]
7 | 2.5 | CC(C)[C@H](NS(=O)(=O)c1ccc2c(c1)oc1ccc(-c3noc(C4CCCC4)n3)cc12)C(=O)O [Compound 263, (S)-2-(8-(5-cyclopentyl-1,2,4-oxadiazol-3-yl)dibenzo[b,d]furan-3-sulfonamido)-3-methylbutanoic acid]
8 | 4.4 | CC(C)[C@@H](NS(=O)(=O)c1ccc2oc3cc(-c4ccc(Cl)o4)ccc3c2c1)C(=O)O [Compound 290, (R)-2-(7-(5-chlorofuran-2-yl)dibenzo[b,d]furan-2-sulfonamido)-3-methylbutanoic acid]
9 | < 1.5 | CC(C)[C@H](NS(=O)(=O)c1ccc2c(c1)oc1ccc(-c3nc(Br)cs3)cc12)C(=O)O [Compound 217, (S)-2-(8-(4-bromothiazol-2-yl)dibenzo[b,d]furan-3-sulfonamido)-3-methylbutanoic acid]
10 | 90 | CC(C)(C)c1nc(-c2ccc3c(c2)oc2ccc(S(=O)(=O)N[C@H](C(=O)O)c4ccccc4)cc23)no1 [Compound 281, (S)-2-(7-(5-tert-butyl-1,2,4-oxadiazol-3-yl)dibenzo[b,d]furan-2-sulfonamido)-2-phenylacetic acid]
11 | 2.2 | CC(C)[C@@H](NS(=O)(=O)c1ccc2oc3cc(-c4nc5ccc(F)cc5s4)ccc3c2c1)C(=O)O [Compound 297, (R)-2-(7-(6-fluorobenzo[d]thiazol-2-yl)dibenzo[b,d]furan-2-sulfonamido)-3-methylbutanoic acid]
12 | 425 | CC(C)[C@H](NS(=O)(=O)c1ccc2c(c1)oc1ccc(C(=N)N(C)C(C)C)cc12)C(=O)O [Compound 110, (S)-2-(8-(N-isopropyl-N-methylcarbamimidoyl)dibenzo[b,d]furan-3-sulfonamido)-3-methylbutanoic acid]
13 | 110 | CC(C)[C@@H](NS(=O)(=O)c1ccc2sc3cc(-c4ccc(Cl)o4)ccc3c2c1)C(=O)O [Compound 288, (R)-2-(7-(5-chlorofuran-2-yl)dibenzo[b,d]thiophene-2-sulfonamido)-3-methylbutanoic acid]
14 | 44 | Cc1n[nH]c(C)c1-c1ccc2oc3cc(S(=O)(=O)N[C@H](C(=O)O)C(C)C)ccc3c2c1 [Compound 19, (S)-2-(8-(3,5-dimethyl-1H-pyrazol-4-yl)dibenzo[b,d]furan-3-sulfonamido)-3-methylbutanoic acid]
15 | 1.5 | COc1ncc(-c2ccc3c(c2)oc2ccc(S(=O)(=O)N[C@@H](C(=O)O)C(C)C)cc23)cn1 [Compound 168, (R)-2-(7-(2-methoxypyrimidin-5-yl)dibenzo[b,d]furan-2-sulfonamido)-3-methylbutanoic acid]
16 | < 1.5 | CC(C)[C@H](NS(=O)(=O)c1ccc2c(c1)oc1ccc(-c3nc(C(F)(F)F)cs3)cc12)C(=O)O [Compound 126, (S)-3-methyl-2-(8-(4-(trifluoromethyl)thiazol-2-yl)dibenzo[b,d]furan-3-sulfonamido)butanoic acid]
17 | 295 | CC(C)[C@H](NS(=O)(=O)c1ccc2c(c1)oc1ccc(-c3ccc(-c4ccno4)s3)cc12)C(=O)O [Compound 211, (S)-2-(8-(5-(isoxazol-5-yl)thiophen-2-yl)dibenzo[b,d]furan-3-sulfonamido)-3-methylbutanoic acid]

Row | IC50 [nM] | SMILES
18 | 2.5 | CC(C)[C@H](NS(=O)(=O)c1ccc2c(c1)oc1ccc(-c3oc(Cl)cc3Cl)cc12)C(=O)O [Compound 134, (S)-2-(8-(3,5-dichlorofuran-2-yl)dibenzo[b,d]furan-3-sulfonamido)-3-methylbutanoic acid]
19 | 140 | CC(C)[C@@H](NS(=O)(=O)c1ccc2oc3cc(-c4cc5ccccc5n4C)ccc3c2c1)C(=O)O [Compound 121, (R)-3-methyl-2-(7-(1-methyl-1H-indol-2-yl)dibenzo[b,d]furan-2-sulfonamido)butanoic acid]
20 | 65 | COc1ccc(-c2ccc3sc4cc(S(=O)(=O)N[C@H](C(=O)O)C(C)C)ccc4c3c2)cn1 [Compound 55, (S)-2-(8-(6-methoxypyridin-3-yl)dibenzo[b,d]thiophene-3-sulfonamido)-3-methylbutanoic acid]
21 | < 1.5 | Cc1nc(-c2cnc(-c3ccc4c(c3)oc3cc(S(=O)(=O)N[C@H](C(=O)O)C(C)C)ccc34)s2)no1 [Compound 228, (S)-3-methyl-2-(7-(5-(5-methyl-1,2,4-oxadiazol-3-yl)thiazol-2-yl)dibenzo[b,d]furan-3-sulfonamido)butanoic acid]
22 | < 1.5 | CC(C)[C@H](NS(=O)(=O)c1ccc2c(c1)oc1ccc(C3CCCC3)cc12)C(=O)O [Compound 71, (S)-2-(8-cyclopentyldibenzo[b,d]furan-3-sulfonamido)-3-methylbutanoic acid]
23 | 276 | CC(C)[C@H](NS(=O)(=O)c1ccc2c(c1)sc1ccc(-c3ccc(-c4ccc(Cl)nc4)nc3)cc12)C(=O)O [Compound 61, (S)-2-(8-(6′-chloro-2,3′-bipyridin-5-yl)dibenzo[b,d]thiophene-3-sulfonamido)-3-methylbutanoic acid]
24 | < 1.5 | COC#Cc1ccc2oc3cc(S(=O)(=O)N[C@H](C(=O)O)C(C)C)ccc3c2c1 [Compound 38, (S)-2-(8-(methoxyethynyl)dibenzo[b,d]furan-3-sulfonamido)-3-methylbutanoic acid]
25 | 73 | CCNC(=N)c1ccc2oc3cc(S(=O)(=O)N[C@H](C(=O)O)C(C)C)ccc3c2c1 [Compound 128, (S)-2-(8-(N-ethylcarbamimidoyl)dibenzo[b,d]furan-3-sulfonamido)-3-methylbutanoic acid]
26 | < 1.5 | CC(C)[C@H](NS(=O)(=O)c1ccc2c(c1)oc1ccc(-c3noc(-c4ccc(F)cc4)n3)cc12)C(=O)O [Compound 272, (S)-2-(8-(5-(4-fluorophenyl)-1,2,4-oxadiazol-3-yl)dibenzo[b,d]furan-3-sulfonamido)-3-methylbutanoic acid]
27 | 2.2 | CC(C)[C@@H](NS(=O)(=O)c1ccc2oc3cc(-c4noc(C5CCCC5)n4)ccc3c2c1)C(=O)O [Compound 190, (R)-2-(7-(5-cyclopentyl-1,2,4-oxadiazol-3-yl)dibenzo[b,d]furan-2-sulfonamido)-3-methylbutanoic acid]
28 | 28 | CC(C)[C@@H](NS(=O)(=O)c1ccc2oc3cc(-c4nc5ccc(C(F)(F)F)cc5s4)ccc3c2c1)C(=O)O [Compound 302, (R)-3-methyl-2-(7-(6-(trifluoromethyl)benzo[d]thiazol-2-yl)dibenzo[b,d]furan-2-sulfonamido)butanoic acid]
29 | 1.9 | CC(C)[C@H](NS(=O)(=O)c1ccc2c(c1)oc1ccc(-c3ccco3)cc12)C(=O)O [Compound 37, (S)-2-(8-(furan-2-yl)dibenzo[b,d]furan-3-sulfonamido)-3-methylbutanoic acid]
30 | < 1.5 | CCCc1ccc(-c2ccc3oc4cc(S(=O)(=O)N[C@H](C(=O)O)C(C)C)ccc4c3c2)s1 [Compound 197, (S)-3-methyl-2-(8-(5-propylthiophen-2-yl)dibenzo[b,d]furan-3-sulfonamido)butanoic acid]
31 | < 1.5 | CC(C)[C@H](NS(=O)(=O)c1ccc2c(c1)oc1cc(-c3ccc(Cl)s3)ccc12)C(=O)O [Compound 84, (S)-2-(7-(5-chlorothiophen-2-yl)dibenzo[b,d]furan-3-sulfonamido)-3-methylbutanoic acid]
32 | 130 | CC(C)(NS(=O)(=O)c1ccc2oc3cc(-c4noc(C(C)(C)C)n4)ccc3c2c1)C(=O)O [Compound 277, 2-(7-(5-tert-butyl-1,2,4-oxadiazol-3-yl)dibenzo[b,d]furan-2-sulfonamido)-2-methylpropanoic acid]
33 | 220 | CC(C)[C@@H](NS(=O)(=O)c1ccc2sc3cc(-c4nccs4)ccc3c2c1)C(=O)O [Compound 285, (R)-3-methyl-2-(7-(thiazol-2-yl)dibenzo[b,d]thiophene-2-sulfonamido)butanoic acid]
